# Measurements as given in article PMC7522027 (Disease Models & Mechanisms, 2020).
# Values joined by “and” are separate entries in the source; they are usually repeats but may differ in a detail not shown here. Equal entries are not always repeated. “Also recorded” adds a separate entry of the source.
# Legend:
# zebrafish embryos = test: in situ hybridization with krox20/myod probes in treated zebrafish embryos; type: in vivo, zebrafish (Danio rerio); conditions: 750 nM from 6 hpf, fixed at 12 hpf
# Procedure: Embryos were treated from approximately 6 hpf until 12 hpf when they were fixed in 4% paraformaldehyde overnight. In situ hybridization was performed using krox20 and myod anti-sense RNA probes as described elsewhere ([Thisse and Thisse, 2008]).
# caALK1 = biological target: T1, caALK1 (Homo sapiens, UniProt P37023, Q201D); test: caALK1-induced SMAD1/5 phosphorylation in HEK 293T cells; type: cell-based; conditions: cercosporamide 1-10 µM, LDN193189 200 nM
# T1 construct: expressed in transfected cells; host or cells: HEK 293T
# From the text: (§1) HepG2 or HEK 293T cells were lysed in Laemmli sample buffer. Proteins were separated by sodium dodecyl sulfate polyacrylamide gel electrophoresis (SDS-PAGE) and transferred onto […] polyvinylidene difluoride (PVDF) membrane (IPVH00010, Merck Millipore). Membranes were blocked using 5% non-fat dry milk in Tris-buffered saline with 0.1% Tween 20 (655204, Merck Millipore) and probed with the respective primary and secondary antibodies. The signal was detected using Clarity™ Western ECL Substrate (1705060, Bio-Rad) and ChemiDoc Imaging System (17001402, Bio-Rad). The antibodies used for immunoblotting were raised against the following proteins: phospho-SMAD1/5/8 ([Persson et al., 1998]; 1:1000), SMAD1 (Cell Signaling Technology, #6944; 1:1000), GAPDH (Merck Millipore, #G8795; 1:5000) and hemagglutinin (HA; Roche, #12CA5; 1:1000).
# (§2) For experiments with the caALK type I receptor constructs, HEK 293T cells were seeded in 24-well plates at ∼90% confluency and transfected with the DNA expression constructs in the presence of PEI. Thirty hours after transfection, the cells were added to serum-starved medium and treated with compounds for 16 h (overnight). Subsequently, the cells were washed with PBS and lysed in Laemmli sample buffer. […]
# caALK5 = biological target: T2, caALK5 (Homo sapiens, UniProt P36897, T204D); test: caALK5-induced SMAD phosphorylation in HEK 293T cells; type: cell-based; conditions: 1, 5, 10 µM
# T2 construct: expressed in transfected cells; host or cells: HEK 293T
# T2 sequence (P36897 34-503 T204D): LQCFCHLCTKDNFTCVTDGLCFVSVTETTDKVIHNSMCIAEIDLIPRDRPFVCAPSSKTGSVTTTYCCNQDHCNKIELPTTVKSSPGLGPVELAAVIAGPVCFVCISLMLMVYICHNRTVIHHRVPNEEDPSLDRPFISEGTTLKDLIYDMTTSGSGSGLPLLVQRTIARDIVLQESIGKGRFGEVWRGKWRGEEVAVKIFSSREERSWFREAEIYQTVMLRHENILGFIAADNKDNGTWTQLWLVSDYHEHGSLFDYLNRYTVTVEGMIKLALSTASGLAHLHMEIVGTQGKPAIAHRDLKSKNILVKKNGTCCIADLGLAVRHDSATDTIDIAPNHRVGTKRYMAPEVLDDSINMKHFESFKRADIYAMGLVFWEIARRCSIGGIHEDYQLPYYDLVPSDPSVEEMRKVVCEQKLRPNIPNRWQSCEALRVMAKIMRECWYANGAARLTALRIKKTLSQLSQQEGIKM
# From the text: as §1, §2
# [1] = test system: BMP2-induced SMAD1/5-dependent BRE-luc transcriptional reporter; test: BMP2-induced BRE-luc transcriptional reporter assay in HepG2 cells; type: cell-based, human; conditions: HepG2, BMP2 50 ng/ml; cercosporamide 100 nM to 10 µM, LDN-193189 200 nM
# Procedure: For luciferase transcriptional reporter assays, HepG2 cells were seeded in 9-cm plates at ∼60% confluency and transfected with polyethyleneimine (PEI). Twenty-four hours later, the transfected cells were seeded in 24-well plates at ∼60% confluency. Another 24 h later, the cells were serum starved for 6 h. Subsequently the cells were treated with compound or DMSO for 30 min. Thereafter, the cells were stimulated with BMP2 in the presence of compounds (or DMSO) for 16 h (overnight). Subsequently, the cells were washed with PBS and lysed. Luciferase activity was measured using the luciferase reporter assay system from Promega (Leiden, The Netherlands) by a Perkin Elmer luminometer Victor^3 1420. Each DNA transfection mixture was equalized with empty vector when necessary and every experiment was performed in triplicate. β-galactosidase expression construct was co-transfected and β-galactosidase was measured to normalize for differences in transfection efficiency. The BRE-luc reporter construct has been reported previously ([Korchynskyi and ten Dijke, 2002]).
# T1 sequence (P37023 22-503 Q201D): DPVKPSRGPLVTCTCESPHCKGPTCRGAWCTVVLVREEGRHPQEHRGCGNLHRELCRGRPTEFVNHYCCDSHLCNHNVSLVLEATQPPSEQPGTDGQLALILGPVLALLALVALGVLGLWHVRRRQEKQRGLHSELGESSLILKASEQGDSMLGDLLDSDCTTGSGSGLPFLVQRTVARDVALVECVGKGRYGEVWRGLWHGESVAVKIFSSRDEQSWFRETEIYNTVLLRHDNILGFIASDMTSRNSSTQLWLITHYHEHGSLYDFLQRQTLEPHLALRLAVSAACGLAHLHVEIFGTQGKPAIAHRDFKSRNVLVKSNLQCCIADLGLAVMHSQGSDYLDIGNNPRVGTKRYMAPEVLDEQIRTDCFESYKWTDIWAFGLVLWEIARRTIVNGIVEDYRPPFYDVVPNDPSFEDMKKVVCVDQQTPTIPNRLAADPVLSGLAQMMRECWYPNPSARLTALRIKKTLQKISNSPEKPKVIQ
compound,measurement,setting,value
"CC(=O)C1=C(O)C=C2Oc3c(C(N)=O)c(O)cc(O)c3[C@]2(C)C1=O [cercosporamide, Cercosporamide]",krox20 expression pattern,zebrafish embryos,induced lateral expression of krox20
same,fraction of embryos showing the pattern,zebrafish embryos; one fraction per depicted pattern,7/15 and 6/15 and 2/15
same,effect on caALK1-induced SMAD1/5 phosphorylation,caALK1,inhibited SMAD1/5 phosphorylation
same,effect on caALK5-induced SMAD1/5 phosphorylation,caALK5,not inhibited; also recorded: only weakly inhibited
same,effect on BMP2-induced BRE-luc activity,[1],inhibited the BMP2-induced response in a dose-dependent manner
